Series [1] relates to CYP2B6. Put plainly: Induction of CYP2B6 vs CYP3A4 mRNA (RT-PCR) and protein (Western blot) in human primary hepatocytes. The series is classed as cell-based. Particulars: for hCAR activation with preferred expression of CYP2B6 protein: FIGS. 3B-3D. Here is the method:
HPHs were obtained from Bioreclamation, IVT. Hepatocytes with viability over 90% were seeded at 1.5×10^6 or 7.5×10^5 cells per well in 6- or 12-well collagen-coated plates. After 4 hours of attachment, cells were overlaid with Matrigel (0.25 mg/mL) in serum-free Williams E medium to form the sandwich culture. Following incubation for 36 hours, HPH were treated with DMSO (0.1%) or hCAR activator (i.e. CITCO or DL 5016) (1 mmol/L) for 24 or 72 hours for mRNA and protein detection, respectively. In separate experiments, wild-type (WT) and CAR-knockout (KO) HepaRG cells obtained from Sigma-Aldrich were cultured in 6- or 12-well collagen-coated plates. Cells were further treated with DMSO or hCAR activator.
Total RNA from HPH and lymphoma cells was isolated with TRizol Reagent (Life Technologies) and reverse transcribed using a High Capacity cDNA Archive kit (Applied Biosystems) following the manufacturers' instructions. mRNA expression of CYP2B6, CYP3A4, was normalized against that of GAPDH. Real-time PCR assays were performed in 96-well optical plates on a StepOnePlus Real-Time PCR System with SYBR Green PCR Master Mix (Applied Biosystems). The primer sequences used for real-time PCR analyses included: CYP2B6: 50-[…]-30 and 50-CCTTCACCAAGACAAATC-CGC-30; CYP3A4: 50-[…]-30 and 50[…]-30. Fold induction of genes over control was determined as 2DDCt, where DCt is representative of the cycle threshold number difference between the target gene and GAPDH and DDCt represents the relative change in the intergroup variations.
(§1) Homogenate proteins from treated HPH, H9c2 or HepaRG cells were resolved on NuPAGE Novex Bis-Tris 4% to 12% gels (Life Technologies) and electrophoretically transferred onto immobilon-P polyvinylidene difluoride membranes. Membranes were incubated with specific antibodies against human CAR (Perseus Proteomics), cleaved caspase-3 (Cell Signaling Technology), or g-H2AX (Millipore), diluted 1:1,000, 1:1,000, and 1:400, respectively. b-Actin was used to normalize protein loading. Following incubation with horseradish peroxidase goat antimouse or anti-rabbit IgG antibody, membranes were developed using SuperSignal West Pico Chemiluminescent Substrate (Thermo Scientific). Western blot signals were quantified by densitometry using ImageJ software from the National Institutes of Health.
The human primary hepatocytes from human donor were treated with vehicle control (0.1% DMSO) or DL5016 at a concentration ranging from 0.1 μM to 1 μM for 24 h and 72 h. The expression mRNA for CYP2B6 and CYP3A4 and CYP2B6 and CYP3A4 protein were analyzed at the time point of 24 h and 72 h respectively.

In series [2] the target is T1, hCAR (Homo sapiens, UniProt Q14994, INS274A).
T1 construct: expressed in transfected cells; host or cells: HepG2
T1 sequence (Q14994 with tags, fused parts or gaps isoform Q14994-2 INS270A): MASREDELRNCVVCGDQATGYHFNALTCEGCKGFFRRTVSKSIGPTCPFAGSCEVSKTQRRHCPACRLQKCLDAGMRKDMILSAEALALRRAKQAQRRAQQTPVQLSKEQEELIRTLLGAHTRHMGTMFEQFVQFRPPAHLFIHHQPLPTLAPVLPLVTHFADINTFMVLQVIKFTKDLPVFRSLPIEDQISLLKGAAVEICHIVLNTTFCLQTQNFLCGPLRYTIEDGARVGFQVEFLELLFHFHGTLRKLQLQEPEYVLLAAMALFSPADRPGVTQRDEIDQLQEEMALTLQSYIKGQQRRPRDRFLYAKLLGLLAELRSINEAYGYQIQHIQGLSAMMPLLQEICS
T1 sequence (P19793 1-462 partner): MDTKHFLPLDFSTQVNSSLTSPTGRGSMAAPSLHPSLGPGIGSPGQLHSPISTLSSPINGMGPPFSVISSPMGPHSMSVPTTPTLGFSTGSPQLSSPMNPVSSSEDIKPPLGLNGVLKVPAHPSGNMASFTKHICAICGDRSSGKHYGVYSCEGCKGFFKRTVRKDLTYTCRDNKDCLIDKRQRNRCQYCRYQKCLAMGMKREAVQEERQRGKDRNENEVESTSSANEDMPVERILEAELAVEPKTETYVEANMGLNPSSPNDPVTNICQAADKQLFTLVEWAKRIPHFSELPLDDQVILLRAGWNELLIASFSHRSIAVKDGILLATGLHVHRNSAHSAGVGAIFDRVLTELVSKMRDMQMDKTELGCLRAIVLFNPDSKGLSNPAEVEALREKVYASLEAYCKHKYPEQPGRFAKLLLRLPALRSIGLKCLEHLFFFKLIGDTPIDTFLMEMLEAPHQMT
Nature of the series: hCAR-mediated CYP2B6 luciferase reporter gene activation in transfected HepG2 cells. The series is classed as cell-based. Particulars: for activation of hCAR: concentrations under 1 μm, FIGS. 3E-3J. As to the method:
(§2) Using CITCO as a model compound, the biological activity of CITCO has been evaluated for its selective activation of hCAR vs. hPXR in luciferase reporter assays, and its effects on CYP2B6 expression at both mRNA and protein levels in cultured human primary hepatocytes (See FIGS. 5A-B).
HepG2 cells were transfected with hCAR1+A expression plasmid and CYP2B6-2.2k firely luciferase reporter construct. Transfected cells were treated with vehicle control (0.1% DMSO), CITCO and DL5016 at indicated concentrations for 24 h, CYP2B6 reported activities were normalized as folds over vehicle control and are expressed as means±SD (n=3). * p<0.05; ***, p<0.001. The results for the effects of DL 5016 compared with CITCO on hCAR-mediated CYP2B6 reported gene activation are shown in FIG. 2.

For series [3], the target named is T2, hPXR (Homo sapiens, UniProt O75469).
T2 sequence (O75469 1-434): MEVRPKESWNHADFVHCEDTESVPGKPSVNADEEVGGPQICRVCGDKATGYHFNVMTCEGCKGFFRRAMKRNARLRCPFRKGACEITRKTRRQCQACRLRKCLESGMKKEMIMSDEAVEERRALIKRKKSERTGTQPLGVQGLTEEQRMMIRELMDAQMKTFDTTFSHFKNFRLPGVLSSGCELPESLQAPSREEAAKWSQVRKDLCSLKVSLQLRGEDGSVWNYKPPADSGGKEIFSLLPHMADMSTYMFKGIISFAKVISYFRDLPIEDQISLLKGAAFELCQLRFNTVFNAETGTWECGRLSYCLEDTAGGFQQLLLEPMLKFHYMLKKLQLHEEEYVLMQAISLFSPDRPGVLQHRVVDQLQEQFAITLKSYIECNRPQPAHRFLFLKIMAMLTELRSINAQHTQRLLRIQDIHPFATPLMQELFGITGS
Nature of the series: hPXR luciferase reporter assay. In kind it is cell-based. Particulars: concentrations under 1 μm; FIGS. 3E-3J.
Description: as §2

Series [4] has as its system SU-DHL-4 cells. Nature of the series: Hepatocyte/lymphoma co-culture with CHOP: cancer cell death, viability, caspase-3. In kind it is cell-based, human. Particulars: hepatocyte/lymphoma co-culture, added to CHOP, FIGS. 10B-C. Here is the method:
HPH were cultured in collagen-coated 12-well plates and pretreated with vehicle control (0.1% DMSO) or hCAR activator (1 mmol/L) for 24 hours. The wells were then separated with […] polycarbonate membrane inserts (Sigma-Aldrich). A total of 0.5×10^6 SU-DHL-4 cells suspended in supplemented Williams' Medium E were transferred into the insert chamber with a final volume of 2 mL/well. In separate coculture experiments, HPH were replaced with either WT or CAR-KO HepaRG cells. The cocultures were exposed to designated concentrations of the chemotherapy drugs in CHOP in the presence or absence of hCAR activator for various time intervals, as indicated.
as §1
HPHs and H9c2 rat cardiomyocytes were seeded at 7.5×10^4 cells per well in 96-well plates. HPH were cultured for 24 hours before treatment with hCAR activator (1 mmol/L) or vehicle control (0.1% DMSO), followed by treatment with the chemotherapy drugs included in CHOP at a range of concentrations. Culture medium containing CHOP drugs and metabolites was exchanged between the cell types at pre-determined time points. A typical 3-[4,5-dimethylthiazol-2-yl]-2,5 diphenyl tetrazolium bromide (MTT) assay was carried out as described previously (21). Cell viability was expressed as the percentage of vehicle control (0.1% DMSO). Cocultured cells were assembled and treated as described above. The viability of the SU-DHL-4 cells was determined at selected time points with a Cellometer Auto T4 (Nexcelom Biosciences) using trypan blue exclusion.

The nature of series [5]: Aqueous solubility. In kind it is physicochemical.

“Also recorded” adds a separate entry of the source.

With `Clc1ccc(-c2nc3sccn3c2CNCCc2cccc(Br)c2)cc1` [DL4104, 2-(3-bromophenyl)-N-((6-(4-chlorophenyl)imidazo[2,1-b]thiazol-5-yl)methyl)ethan-1-amine], the “hCAR activation with preferred expression of CYP2B6 protein” value (shortened to “hCAR activation”) in series [1] is “activate hCAR resulted preferred expression of CYP2B6 protein”.

In the case of `Cl.Clc1ccc(-c2nc3sccn3c2CNCCc2ccc(Cl)c(Cl)c2)cc1` [DL4072, N-((6-(4-chlorophenyl)imidazo[2,1-b]thiazol-5-yl)methyl)-2-(3,4-dichlorophenyl)ethan-l-amine hydrochloride], the “hCAR activation” value in series [1] was “activate hCAR resulted preferred expression of CYP2B6 protein”. Besides, the “activation of hCAR” value in series [2] is “activated hCAR”. Further, in series [3], the “activation of hPXR” value was “not hPXR”. Regarding `Clc1ccc(-c2nc3sccn3c2CNCCc2ccc(Br)cc2)cc1` [DL 4100, 2-(4-bromophenyl)-N-((6-(4-chlorophenyl)imidazo[2,1-b]thiazol-5-yl)methyl)ethan-1-amine], the “hCAR activation” value in series [1] was “activate hCAR resulted preferred expression of CYP2B6 protein”. Same read-out and setting: next, `FC(F)(F)c1ccc(CCNCc2c(-c3ccc(Cl)cc3)nc3sccn23)cc1Cl` [DL4103, 2-(3-chloro-4-(trifluoromethyl)phenyl)-N-((6-(4-chlorophenyl)imidazo[2,1-b]thiazol-5-yl)methyl)ethan-1-amine]: “activate hCAR resulted preferred expression of CYP2B6 protein”; `Clc1ccc(CCNCc2c(-c3ccc(Cl)cc3)nc3sccn23)cc1` [DL4095, 2-(4-chlorophenyl)-N-((6-(4-chlorophenyl)imidazo[2,1-b]thiazol-5-yl)methyl)ethan-1-amine]: “activate hCAR resulted preferred expression of CYP2B6 protein”.

Take `Clc1ccc(-c2nc3sccn3c2CNCCc2ccc(Cl)c(Br)c2)cc1` [DL 4102, 2-(3-bromo-4-chlorophenyl)-N-((6-(4-chlorophenyl)imidazo[2,1-b]thiazol-5-yl)methyl)ethan-1-amine]: in series [1], the “hCAR activation” value was “activate hCAR resulted preferred expression of CYP2B6 protein”.

For `Clc1ccc(-c2nc3sccn3c2/C=N/CCc2ccc(Cl)c(Cl)c2)cc1` [DL4059, (E)-1-(6-(4-chlorophenyl)imidazo[2,1-b]thiazol-5-yl)-N-(3,4-dichlorophenethyl)methanimine], the “hCAR activation” value in series [1] is “activate hCAR resulted preferred expression of CYP2B6 protein”. Further, the “activation of hCAR” value in series [2] is given as “low activity”. Also, the “activation of hPXR” value in series [3] is listed as “low activity”. For `Clc1ccc(-c2nc3sccn3c2CNCCc2ccc(Cl)c(Cl)c2)cc1` [DL4097, N-((6-(4-chlorophenyl)imidazo[2,1-b]thiazol-5-yl)methyl)-2-(3,4-dichlorophenyl)ethan-1-amine], the “hCAR activation” value in series [1] is given as “activate hCAR resulted preferred expression of CYP2B6 protein”. The same measure, in the same setting: next, `Clc1ccc(-c2nc3sccn3c2CNCCc2cccc(Cl)c2)cc1` [DL4094, 2-(3-chlorophenyl)-N-((6-(4-chlorophenyl)imidazo[2,1-b]thiazol-5-yl)methyl)ethan-1-amine]: “activate hCAR resulted preferred expression of CYP2B6 protein”.

`c1ccc2c(c1)CC(NCc1c(-c3ccc4ccccc4c3)nc3occn13)C2` [DL5016, N-((6-(naphthalen-2-yl)imidazo[2,1-b]oxazol-5-yl)methyl)-2,3-dihydro-1H-inden-2-amine]: the “induction of CYP2B6 over CYP3A4 at mRNA and protein levels” value in series [1] (human primary hepatocytes, 0.1-1 μM, 24 h (mRNA) and 72 h (protein), FIG. 3A) was “potent and selective induction of CYP2B6 over CYP3A4”. In series [2] (HepG2 cells, hCAR1+A plasmid, CYP2B6-2.2k luciferase reporter, 24 h, FIG. 2), the “hCAR activity (CYP2B6 reporter gene activation) compared with CITCO” value is reported as “higher hCAR-inducing activity than CITCO; also recorded: more effective than CITCO”. Further, the “effect on CHOP anticancer activity (cancer cell death)” value in series [4] was “potentiates the beneficial effects of CHOP in causing cancer cell death; also recorded: clearly enhanced the regimen's anticancer activity”; in series [4] (listed as DL 5016), “potentiate the beneficial effects of CHOP in causing cancer cell death”. Further, in series [5], the “aqueous solubility compared with CITCO” value was “improved aqueous solubility”.

The values above are taken from patent US11701345B2, “Car activator agents for cyclophosphamide-based treatments of cancer” (UNIVERSITY OF MARYLAND, BALTIMORE, priority 2017, dated 2023).
